Patent US11612609B2, “Uses of oxygenated cholesterol sulfates (OCS)” (Virginia Commonwealth University, priority 2013, dated 2023)
“Also recorded” adds a separate entry of the source.

Experiments:
[1] = system: acute liver failure induced by acetaminophen; assay: Acetaminophen (ATMP) 500 mg/kg acute liver failure in mice, serum markers (Example 1A); assay type: in vivo
Experimental: (§1) Female mice were peritoneally-injected with acetaminophen (500 mg/kg, in 10% ethanol in PBS) either 0.5 or 2 hrs before being treated by administration of 25HC3S (20 or 25 mg/kg, 10% propylene glycol in PBS). Sera were collected 24 or 48 hrs following acetaminophen administration and enzymatic activities and other serum parameters were measured.

[2] = Level of 25HC3S in blood and tissues after administration (Example 1A, FIG. 3); assay type: in vivo, mice
Experimental: FIGS. 3A and B. Concentration of 25HC3S in A, blood and B, the indicated tissues of rats subjected to high levels of ATMP.
as §1
FIGS. 3A and 3B show the level of 25HC3S in blood (3A) and the indicated tissues (3B) at the indicated times after administration.

[3] = system: high dose of acetaminophen (ATMP); assay: ATMP 600 mg/kg in mice, 10-day mortality and liver function markers (Example 1B); assay type: in vivo
Experimental: In another set of experiments, female mice were peritoneally-injected with acetaminophen (600 mg/kg, in 20% EtOH in PBS) and were then further treated by peritoneal injection of 25HC3S (25 mg/kg in 10% PG in PBS) 2 and 24 hrs later. Control mice received ATMP without 25HC3S. Mortality was monitored for 10 days.

[4] = system: acute liver failure, as induced by PO administration of acetaminophen; assay: ATMP 300 mg/kg PO in mice, serum chemistry and body weight (Example 2); assay type: in vivo; conditions: 25HC3S 25 mg/kg IP or PO, 1 hour and 24 hours after ATMP 300 mg/kg PO; vs route-matched vehicle
Experimental: Mice were challenged with acetaminophen (300 mg/kg PO) and then treated with vehicle or 25HC3S (25 mg/kg) by IP injection or PO gavage, one (1) hour and 24 hours after acetaminophen challenge. Measurements and samples included whole blood for serum and clinical chemistry analysis (ALT, AST, ALK, LDH, BUN and glucose) and livers and kidneys for formalin fixation and histology.

[5] = system: renal ischemia/reperfusion; assay: Kidney ischemia-reperfusion in rats (Example 3); assay type: in vivo, Lewis rats
Experimental: 25HC3S was dissolved in propylene glycol, at 20 mg/mL, and stored at room temperature as the stock solution. Before use, 3 parts of PBS was mixed with 1 part of DV928 stock solution. The final concentration for injection was 5 mg/ml. Preparation of the Formulation for oral gavage: […]
25HC3S was suspended in 0.5% carboxymethylcellulose (CMC) containing 0.05% tween-80, at 10 mg/mL, and stored at room temperature and mixed well before use.
Adult (9- to 11-week-old) male Lewis (LEW, RE11) rats, 225-250 gram, were housed in a controlled 12-hr light-dark cycle environment and allowed free access to water and regular rat chow. All rats were anesthetized with pentobarbital 40 mg/kg i.p.
Ischemia of the left kidney was performed by transient occlusion of the left renal artery and vein, and ureter for 50 min with a vascular micro-clip. The skin was temporarily closed during the ischemia period, and the rats were put on a heating pad maintained at a temperature of 37° C. At reperfusion, the right kidney was removed before closing the abdomen with 4-0 silk suture.
Animals were randomly divided into 5 groups: • Group A. 25HC3S—i.p. dosing (as pre-treatment) N=12 • Group B. 25HC3S—i.p. dosing (as post-treatment) N=12 • Group C. 25HC3S—oral dosing (as pre-treatment) N=12 • Group D. Vehicle control, i.p. (as pre-treatment) N=6 • Group E. Vehicle control, oral (as pre-treatment) N=6
Rats in the pre-treatment groups received active or vehicle 1 day before (Day −1) the surgical intervention (I/R event) and continued for a total of 4 days. Rats in the post-treatment group received the 1st treatment at 30 min after the renal artery occlusion and continued for a total of 3 days. Blood samples were taken from all rats 2 days before the surgery (as baseline), 3 days after the surgery, and 7 days after the surgery for serum creatinine and blood urea nitrogen (BUN) analysis. All rats were sacrificed on Day 7.

[6] = system: heart ischemia-reperfusion injury; assay: Heart ischemia-reperfusion in mice (Example 4); assay type: in vivo, C67B16 mice
Experimental: Wild-type C67B16 mice, both males and females, were used in the experiment. After anesthesia, the thorax of each mouse was opened and the heart was subject to a 45-minute ischemic period by ligation of the left anterior descending coronary artery, and then reperfusion was allowed by removing the coronary arterial obstruction. The thorax was closed, and mice were allowed to recover for 24 hours. All animals were sacrificed at the end of the study, 24 h after the procedure, to gain access to the heart tissue. The heart was frozen, sectioned into slices, and then stained to determine the infarct size.
Given the experience that 25-30% of the animals may die within the 24-hour period because of the procedure (occlusion of coronary artery), all groups included 12 animals. The vehicle treated group (12 mice) was compared with 25HC3S treated groups (24 mice). One group of mice received the drug (25HC3S) just before ischemia/reperfusion (FR) and another group received drug about 16-20 h before FR. Administration was via the i.p. route with either vehicle (10% propylene glycol in PBS) or 25HC3S at a dose of 25 mg/kg in the same vehicle.

[7] = system: transient focal cerebral ischemia (tMCAO); assay: Brain stroke study, transient middle cerebral artery occlusion (tMCAO) in rats (Example 5); assay type: in vivo, Sprague Dawley rats; conditions: for tissue viability (T2 relaxation time): lower T2 in ms vs vehicle
Experimental: Transient focal cerebral ischemia was produced by right side middle cerebral artery (MCA) occlusion in male Sprague Dawley rats under anesthesia. After 120 min of ischemia, the MCA blood flow was restored. The procedure was therefore named tMCAO. All rats were given an i.p. injection of saline (4 ml per rat) after the surgery. Three groups of rats were used in the study: • Group A: 12 sham operated rats received vehicle by ip injection • Group B: 12 tMCAO rats received vehicle by ip injection • Group C: 12 tMCAO rats received 25HC3S by ip injection The parameters measured were as follows: • Mean body weight over time • Mean 7- and 20-point Neuroscore over time • Limb Placing test results over time • Mean infarct volumes (mm3), edema volumes (mm3) and T2-relaxation times (ms) Behavioral testing was conducted at 24 hours, 3 days, and 7 days post transient middle cerebral artery occlusion (tMCAO). Both 20-point Neuroscore and 7-point Neuroscore tests were conducted to assess post-ischemic motor and behavioral deficits. The Limb Placing test was conducted to assess the sensory motor integration of fore- and hind-limbs responses to tactile and proprioceptive stimulation. MRI acquisitions in vivo for all rats were performed at 24 h and 7 days after tMCAO.Lesion size, tissue viability (T2 in milliseconds), and brain edema were determined using absolute T2-MRI. Eighteen (18) coronal slices of thickness 1 mm were acquired using field-of-view imaging matrix. Absolute T2-values from contra-lateral cortex were used as a reference for tissue viability. All MRI data were analyzed using Matlab software. The infarct volume/oedema analysis was done by an observer blinded to the treatment groups. Results

[8] = system: sepsis induced by the endotoxin lipopolysaccaride (LPS); assay: Sepsis induced by LPS, 25HC3S given 2 hrs after LPS (Examples 6A and 6B); assay type: in vivo, C57BL/6J mice; conditions: 25HC3S 25 mg/kg 2 hrs after LPS, vs vehicle
Experimental: To examine the effect of 25HC3S on sepsis induced by the endotoxin lipopolysaccaride (LPS), 11-week-old female C57BL/6J mice were IV-injected with LPS (30 mg/kg or 40 mg/kg, in PBS) 2 hrs before being treated by administration of 25HC3S (25 mg/kg, 10% propylene glycol in PBS), and mortality was monitored (% survival).

mortality induced by LPS = assay: Mortality induced by LPS, pretreatment with 25HC3S (Example 6C); assay type: in vivo, C57BL/6J mice; conditions: LPS 4 mg/kg IV; 25HC3S 50 mg/kg 2 hrs before LPS; as of day 3; control 40%
Experimental: A further experiment to examine the effects of pretreatment of 25HC3S on mortality induced by LPS was conducted. In this experiment, 11-week-old female C57BL/6J mice were IV-injected with LPS (4 mg/kg in PBS). The mice were treated by administration of 25HC3S (50 mg/kg, 10% propylene glycol in PBS) 2 hrs before LPS administration, and mortality (% survival) was monitored. The results are presented below and in FIG. 9C.

[9] = Human Phase I single dose ascending study (Example 7); assay type: in vivo
Experimental: A randomized, double blind, and placebo controlled single dose ascending First-in-human Phase 1 study was conducted. The active agent, 25HC3S, was suspended at 30, 100, 300, and 600 mg in 60 mL of ORA-Blend® SF sugar-free flavored oral suspending vehicle. As Placebo dosage form, calcium carbonate, USP, was suspended at 30, 100, 300, and 600 mg in 60 mL of ORA-Blend® SF sugar-free flavored oral suspending vehicle. The suspension, either active or Placebo, was orally administered to each subject. Each dose group had 4 subjects receiving a single dose of active and 2 subjects receiving a single dose of Placebo. All subjects were monitored by health professionals for any potential adverse events for 7 days following administration.

[10] = 25HC3S 20 or 25 mg/kg 2 hours after ATMP 500 mg/kg, within 24 hrs
[11] = oral gavage pretreatment, higher dose, Day 3, to a lesser extent than injection
[12] = post-treatment by injection, first dose 30 min after occlusion, 3 days
[13] = pretreatment by IP injection a day before surgery, once daily 4 days
[14] = 24 hours post tMCAO, vs vehicle, difference not statistically significant
[15] = 24 hours, 3 days, 7 days post tMCAO, vs vehicle, trend of better scores

## C[C@H](CCCC(C)(C)O)[C@H]1CC[C@H]2[C@@H]3CC=C4C[C@@H](OS(=O)(=O)O)CC[C@]4(C)[C@H]3CC[C@]12C [25HC3S, 5-cholesten-3, 25-diol, 3-sulfate]
[1]; [10]
  decrease of serum ALT: 58%
  decrease of serum AST: 45%
  decrease of serum LDH: 60%
[1]; 25HC3S 0.5 hours after ATMP, in 48 hrs
  markers of liver and kidney function (ALT, AST, ALK, LDH, BUN, glucose): returned most markers of liver and kidney function to normal levels
[2]; female, mouse, blood, FIG. 3A, read-out: half life in circulation (converted)
  half-life: ~30 h
[2]; indicated tissues, FIG. 3B
  tissue distribution: widely distributed in different tissues
[3]; 25HC3S 25 mg/kg ip 2 and 24 hrs after ATMP 600 mg/kg, monitored 10 days, vs control
  survival rate: much higher than that of control animals
[3]; surviving mice, sera at 48 hours, vs control (ATMP and vehicle)
  liver function (damage) markers ALT, AST, AKP and ADH: lower values of each enzyme
[4]
  attenuation of body weight loss: no statistically significant attenuation
  attenuation of elevated clinical chemistry parameters (LDH, AST and ALT): no statistically significant attenuation
[5]; [11]
  serum BUN level: reduced
  serum creatinine level: reduced
[5]; [12]
  serum BUN level: reduced
  serum creatinine level: reduced
[5]; [13]
  serum BUN level: significantly improved
  serum creatinine level: significantly improved
[6]; 25HC3S 25 mg/kg i.p. just before or 16-20 h before ischemia/reperfusion, vs vehicle
  size of infarction: no statistically significant difference
[6]; 25HC3S 25 mg/kg i.p., vehicle group 64%
  24-hour survival rate: 86%
[7]; 24 hours after tMCAO, vs vehicle, difference not statistically significant
  brain lesion volume: smaller
[7]; 24 hours post tMCAO
  tissue viability (T2 relaxation time): statistically higher tissue viability
[7]; [14]
  % edema: smaller
  edema volume: smaller
[7]; [15]
  7-point Neuroscore: no statistically significant differences
  20-point Neuroscore: no statistically significant differences
  Limb Placing test: no statistically significant differences
[7]; 7 days after tMCAO, vs vehicle, difference not statistically significant
  brain lesion volume: smaller
[7]; 7 days post tMCAO
  % edema: nearly recovered; also recorded: some higher levels of edema
  edema volume: nearly recovered; also recorded: some higher levels of edema
  tissue viability (T2 relaxation time): statistically higher tissue viability
[7]; ip injection in tMCAO rats
  irritation, discomfort or adverse side effects: did not cause irritation, discomfort, or any adverse side effects
[7]; starting from Day 4 after tMCAO, vs vehicle
  body weight recovery: faster recovery in body weights
[8]; LPS 30 mg/kg IV
  survival (mortality monitored): lived significantly longer
[8]; LPS 40 mg/kg IV
  survival (mortality monitored): lived significantly longer
Mortality induced by LPS
  survival rate: 100%
[9]; single oral dose 30, 100, 300, 600 mg suspension, monitored 7 days
  adverse effects: No adverse effects were observed
[9]; single oral dose 30-600 mg
  tolerability: well tolerated
[9]; single oral dose, plasma samples (FIG. 10)
  bioavailability: high bioavailability
